Experimental data as given in the supplement of paper PMC12137928.
Structures can show the parent of a compound that is named as a salt.

Test system: HCT116
Details: 72 h
Summary of the method: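 HCT116 cells were seeded at 250 per well in 1536-well plates with 5 h allowed for attachment. CellTiter-Glo luminescence was normalized against vehicle (0%) and positive control (-100%) before pattern correction. The IC50 and maximal efficacy figures derive from four-parameter Hill fits.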

Compound | IC50 cell viability (ICRF193 0 nM) [µM] | IC50 cell viability (ICRF193 200 nM) [µM]
C=CCOc1ccc(CC(=O)O)cc1Cl [Alclofenac] | > 45.8 | > 45.8
CCC(=O)OCC(=O)[C@@]1(OC(=O)CC)[C@H](C)C[C@H]2[C@H]3[C@H]([C@@H](O)C[C@@]21C)[C@@]1(C)C=CC(=O)C=C1C[C@H]3Cl [Alclometasone dipropionate] | > 45.8 | > 45.8
C=CC[N@@+]12CC[C@@]34c5ccccc5N5/C=C6/[C@H]7C[C@H]8[C@@]9(CC[N@@+]8(CC=C)C/C7=C/CO)c7ccccc7N(/C=C(/[C@@H](C[C@@H]31)/C(=C\CO)C2)[C@H]54)[C@@H]69 [Alcuronium chloride] | > 45.8 | > 45.8
CCc1cc2c(cc1N1CCC(N3CCOCC3)CC1)C(C)(C)c1[nH]c3cc(C#N)ccc3c1C2=O [Alectinib] | > 45.8 | > 45.8
COc1cc2nc(N(C)CCCNC(=O)C3CCCO3)nc(N)c2cc1OC (stereo not given) [Alfuzosin hydrochloride] | > 45.8 | > 45.8
Cc1ccccc1C(=O)N1CC/C(=N\OS(=O)(=O)O)c2ccc(Cl)cc21 [Alilusem potassium] | > 45.8 | > 45.8
COCCCOc1cc(C[C@@H](C[C@H](N)[C@@H](O)C[C@H](C(=O)NCC(C)(C)C(N)=O)C(C)C)C(C)C)ccc1OC [Aliskiren hemifumarate] | > 45.8 | > 45.8
NC(=O)NC1NC(=O)NC1=O (stereo not given) [Allantoin] | > 45.8 | > 45.8
C=CCC1=C(C)C(OC(=O)C2C(C=C(C)C)C2(C)C)CC1=O (stereo not given) [Allethrin] | > 45.8 | > 45.8
C=CCOc1cc(Cl)ccc1C(=O)NCCN(CC)CC [Alloclamide] | > 45.8 | > 45.8
Oc1ncnc2[nH]ncc12 [Allopurinol] | > 45.8 | > 45.8
C=CC[C@]1(O)CC[C@H]2[C@@H]3CCC4=CCCC[C@@H]4[C@H]3CC[C@@]21C [Allylestrenol] | > 45.8 | > 45.8
C=CCNC(N)=S [Allylthiourea] | > 45.8 | > 45.8
CN(C)CCc1c[nH]c2ccc(CS(=O)(=O)N3CCCC3)cc12 [Almotriptan] | > 45.8 | > 45.8
Cc1[nH]cnc1CN1CCc2c(c3ccccc3n2C)C1=O [Alosetron hydrochloride] | > 45.8 | > 45.8
C=CCc1ccccc1OCC(O)CNC(C)C (stereo not given) [Alprenolol] | > 45.8 | > 45.8
C=CC[C@]1(O)CC[C@H]2[C@@H]3CCC4=CC(=O)CCC4=C3C=C[C@@]21C [Altrenogest] | > 45.8 | > 45.8
CN(C)c1nc(N(C)C)nc(N(C)C)n1 [Altretamine] | > 45.8 | > 45.8
CCN(CCCc1ccccc1)CCCc1ccccc1 [Alverine citrate] | > 45.8 | > 45.8
C[C@H]1CN(C[C@H](Cc2ccccc2)C(=O)NCC(=O)O)CC[C@@]1(C)c1cccc(O)c1 [Alvimopan] | > 45.8 | > 45.8
NC12CC3CC(CC(C3)C1)C2 [Amantadine hydrochloride] | > 45.8 | > 45.8
CC[N+](CC)(CCNC(=O)C(=O)NCC[N+](CC)(CC)Cc1ccccc1Cl)Cc1ccccc1Cl [Ambenonium chloride] | > 45.8 | > 45.8
COC(c1ccccc1)(c1ccccc1)[C@H](Oc1nc(C)cc(C)n1)C(=O)O [Ambrisentan] | > 45.8 | > 45.8
Nc1c(Br)cc(Br)cc1CN[C@H]1CC[C@H](O)CC1 [Ambroxol hydrochloride] | > 45.8 | > 45.8
CC1(C)S[C@@H]2[C@H](/N=C/N3CCCCCC3)C(=O)N2[C@H]1C(=O)O [Amdinocillin] | > 45.8 | > 45.8
